Earlier results on two compounds are cited in patent publication US20170326147A1, “INHIBITING BLOOD PRESSURE DROP IN THE TREATMENT OF ERECTILE DYSFUNCTION” (FORMUREX, INC., priority 2014, published 2017).

For data set [1], the system named is plasma proteins. Conditions: independent of total drug concentration.

Molecules are shown by their SMILES. Counter-ions that a name gives are not always drawn.

Turning to `CCCc1nn(C)c2c(=O)[nH]c(-c3cc(S(=O)(=O)N4CCNCC4)ccc3OCC)nc12` [N-desmethyl metabolite, N-desmethyl sildenafil], the “bound to plasma proteins” value in data set [1] is on record as “approximately 96%”.
For the compound `CCCc1nn(C)c2c(=O)[nH]c(-c3cc(S(=O)(=O)N4CCN(C)CC4)ccc3OCC)nc12` [sildenafil citrate], for the setting “fasting”, the “Tmax average, fasting subjects” value is “about 1 hr”. For the same compound, the “delay of mean Tmax by food in the stomach” value (fed) is recorded as “about 1.1 hr”. In addition, for the setting “oral, absorption through the digestive tract”, the “bioavailability (mean absolute), oral administration” value was “about 40%”. For the same compound, the “bound to plasma proteins” value in data set [1] is given as “approximately 96%”.
